US20230174538A1, “Tricyclic heterocycles” (Merck Patent GmbH, priority 2020, published 2023)
pIC50: −log10 of the molar value.

Key:
[1] = test system: YAP-TEAD interaction; assay: SK-HEP-1 reporter assay (8xTEAD responsive elements driving NanoLuc luciferase); assay type: cell-based; settings: Homo sapiens, SK-HEP1, SK-HEP-1 reporter assay
Outline: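 SK-HEP-1 cells stably carrying an 8×TEAD-element NanoLuc reporter were treated in duplicate with 10-point dilutions from a top final 30 μM (0.3% DMSO). After 24 h at 37 °C, luciferase activity was read by luminescence with NanoGlo lysis/substrate reagent, and IC50 values were derived.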

[2] = test system: NCI-H226 cells; assay: Viability assay in NCI-H226 (Yap-dependent) cells, CyQUANT; assay type: cell-based; settings: Homo sapiens
Description: (§1) Viability Assay in NCI-H226 (Yap-Dependent) and SW620 Yap KO (Yap Independent) Cells
(§2) The ability of YAP-TEAD inhibitors to inhibit tumor cell growth was evaluated using two different cell lines: NCI-H226, which is a YAP dependent cell line, and SW620 cells, where YAP and TAZ were knocked out using CRISPR to generate a YAP independent cell line.
(§3) For the assay, cells were treated in duplicates with the test compounds in a 10-point dose, 1:3 dilution steps, with the top concentration starting at 30 μM (final concentration in assay). After a 96 hour incubation at 37° C., 95% rH, and 5% CO2, a cell-permeant DNA-binding dye that stains only healthy cells (CyQUANT®, Promega) was added to the cells, allowing the quantification of cell viability.
(§4) Cell Media: The NCI-H226 cells were cultured in the following media: RPMI 1640, +10% FBS, +1× GlutaMAX, +10 mM HEPES, +0.5% Pen/Strep. The SW620-KO cells were cultured in the following media: DMEM/F-12, +10% FBS, +1× GlutaMAX, +10 mM HEPES, +0.5% Pen/Strep.
(§5) Reagents: The reagents used are listed below:
(§6) Cell culture: The cells were examined using an inverted microscope to check for health, cell density, etc. To dissociate adherent cells, the monolayer of cells was washed once with pre-warmed PBS. After removing the PBS, 3 ml pre-warmed Accutase was added to a F75 flask, dispersed evenly and the flask was allowed to sit in incubator for ˜4-5 minutes.
(§7) When a single cell suspension was obtained, 7 ml of prewarmed growth media was added and resuspended with the cells. The cell suspension was transferred to a sterile 15 ml conical centrifuge tube, and spun for 5 min at 300×g, RT. The supernatant was discarded and the pellet was resuspended in 10 ml of pre-warmed growth media.
(§8) The total cell count was determined, and 20 μl of the desired cell number was added to each well of a 384 well plate using a Multidrop Combi. The plates were then incubated for 24 hours at 37° C., 95% rH, and 5% CO2.
(§9) Compound treatment: 24 hours after seeding, the cells were treated with compounds.
(§10) A 1:333 dilution of compounds, diluted in DMSO, was made to get a final concentration of 0.3% DMSO per well. To transfer the compounds to the assay plate, 120 nl was shot from Labcyte low dead volume plates to the cell plates containing 20 μl media/well with the ECHO 555 liquid handling system.
(§11) After treatment, the cells were fed with 20 μl fresh pre-warmed assay media using a Multidrop combi.
(§12) The assay plates were then incubated for 96 h at 37° C., 95% rH, and 5% CO2.
(§13) 96 h after treatment 30 μl of CyQuant® reagent was added to the assay plates using a Multidrop combi in the dark. The plates were then incubated for 1 hour at 37° C., 95% rH and 5% CO2. Thereafter, the assay plates were removed from the incubator and allowed to equilibrate to RT for 30 min in the dark without lid. Finally, they were measured using an EnVision microplate reader with a FITC bottom read program.

[3] = test system: SW620 Yap KO cells; assay: Viability assay in SW620 Yap KO (Yap independent) cells, CyQUANT; assay type: cell-based; settings: Homo sapiens, SW-620
Description: as §1, §2, §3, §4, §5, §6, §7, §8, §9, §10, §11, §12, §13

[4] = test system: NCI-H226 human mesothelioma tumor cells; assay: NCI-H226 in vivo efficacy study (subcutaneous xenograft); settings: H2d Rag2 female mice, NCI-H226 tumors, po qd for 29 days
Description: NCI-H226 In Vivo Efficacy Study
7-9-week-old H2d Rag2 female mice (own breeding, Taconic-Denmark) were inoculated subcutaneously with 5×10^6 NCI-H226 human mesothelioma tumor cells in the right flank. Tumor growth and body weight was measured twice weekly using caliper. Tumor volume was calculated using the formula TV=L×W×W/2.
When tumor volume reached approximately 75-150 mm^3, animals were randomized (Day 0) into treatment groups (n=9-10/group) and treated perorally (po) once daily (qd) for 29 days with either vehicle (20% hydroxypropyl β-cyclodextrin in 50 mM PBS pH 7.4) or Compound no. 2. Compound no. 2 was tested at dosing levels of 1, 3, 10, 30, and 100 mg/kg, respectively. Results are depicted in FIG. 1 (tumor growth over time for vehicle group and each dosage group) and FIG. 2 (final tumor volume of vehicle group and each dosage group).
Statistical analysis of tumor volumes between treatment groups was done using repeated measures analysis of covariance (RM-ANCOVA) in a linear mixed effects model followed by least-squares means pairwise comparisons.
The animal experiment was performed under regulation of the German animal welfare act and in accordance with the EU laboratory animal directive for the area of animal experiments.

Row | SMILES | pIC50 [1] | pIC50 [2] | pIC50 [3] | melting point [°C] | dosing levels showing maximal tumor growth inhibition [4] [mg/kg] | tumor growth inhibition compared to vehicle treated group ([4]; 1, 3, 10, 30 and 100 mg/kg, all tested dosing levels, p-value <0.001)
1 | Cn1cc2c(n1)c1cc(C#N)ccc1n2-c1ccc(C(F)(F)F)cc1 [Example 19, 2-methyl-4-[4-(trifluoromethyl)phenyl]pyrazolo [4,3-b]indole-7-carbonitrile] | < 5.00 | < 5.00 | < 4.52 | 208 to 210 |  | 
2 | C=CC(=O)NCc1ccc2c(c1)c1cn(C)nc1n2-c1ccc(C(F)(F)F)cc1 [Example 21, N—([2-methyl-8-[4-(trifluoromethyl)phenyl]pyrazolo [3,4-b]indol-5-yl]methyl)prop-2-enamide] | 8.00 to 9.00 | 5.00 to 6.00 | 4.52 to 5.00 | 185 to 187 |  | 
3 | C=CC(=O)Nc1ccc2c(c1)c1cn(C)nc1n2-c1ccc(C(F)(F)F)cc1 [Example 20, N-[2-methyl-8-[4-(trifluoromethyl)phenyl]pyrazolo[3,4-b]indol-5-yl]prop-2-enamide] | 8.00 to 9.00 | 6.00 to 7.00 | 4.52 to 5.00 | 223 to 224 |  | 
4 | Cn1cc2c3cc(CNC(=O)CCl)ccc3n(-c3ccc(C(F)(F)F)cc3)c2n1 [Example 24, 2-chloro-N—([2-methyl-8-[4-(trifluoromethyl)phenyl]pyrazolo[3,4-b]indol-5-yl]methyl)acetamide] | 5.00 to 7.00 | 6.00 to 7.00 | 5.00 to 6.00 | 221 to 222 |  | 
5 | Cn1cc2c3cc(C(=O)O)ccc3n(-c3ccc(OC(F)(F)F)cc3)c2n1 [Example 18, 2-methyl-8-[4-(trifluoromethoxy)phenyl]-2H,8H-pyrazolo[3,4-b]indole-5-carboxylic acid] | 8.00 to 9.00 | 6.00 to 7.00 | < 4.52 |  |  | 
6 | COc1nc(C)cc(CNC(=O)c2ccc3c(c2)c2cn(C)nc2n3-c2ccc(C(F)(F)F)cc2)n1 [B126^] | 7.00 to 8.00 | 7.00 to 9.00 | < 4.52 |  |  | 
7 | Cn1cc2c3cc(C(=O)O)ccc3n(-c3ccc(C(F)(F)F)cc3)c2n1 [Example 2, 2-methyl-8-[4-(trifluoromethyl)phenyl]-2H,8H-pyrazolo[3,4-b]indole-5-carboxylic acid] | 8.00 to 9.00 |  | < 4.52 |  | > 10 | Significant tumor growth inhibition
8 | COC(=O)c1ccc2c(c1)c1nn(C)cc1n2-c1ccc(C(F)(F)F)cc1 [Example 16, Methyl 2-methyl-4-[4-(trifluoromethyl)phenyl]pyrazolo[4,3-b]indole-7-carboxylate] | 7.00 to 8.00 | 7.00 to 9.00 | 5.00 to 6.00 | 111 to 112 |  | 
9 | COc1ccc(-n2c3ccc(C(=O)O)cc3c3cn(C)nc32)cc1 [Example 14, 8-(4-methoxyphenyl)-2-methyl-2H,8H-pyrazolo[3,4-b]indole-5-carboxylic acid] | 7.00 to 8.00 | 6.00 to 7.00 | < 4.52 |  |  | 
10 | Cn1cc2c3cc(C(=O)O)ccc3n(-c3ccc(F)cc3)c2n1 [Example 10, 8-(4-fluorophenyl)-2-methyl-2H,8H-pyrazolo[3,4-b]indole-5-carboxylic acid] | 7.00 to 8.00 | 6.00 to 7.00 | < 4.52 |  |  | 
11 | Cn1cc2c3cc(C(=O)O)ccc3n(Cc3ccccc3)c2n1 [Example 12, 8-(Benzyl)-2-methyl-2H,8H-pyrazolo[3,4-b]indole-5-carboxylic acid] | 7.00 to 8.00 | 6.00 to 7.00 | < 4.52 |  |  | 
12 | CCOc1ccc(-n2c3ccc(C(=O)O)cc3c3cn(C)nc32)cc1 [Example 15, 8-(4-Ethoxyphenyl)-2-methyl-2H,8H-pyrazolo[3,4-b]indole-5-carboxylic acid] | 7.00 to 8.00 | 6.00 to 7.00 | < 4.52 | 179 to 181 |  | 

Now from value to compound, other results behind:

Row | pIC50 [1] | pIC50 [2] | pIC50 [3] | melting point [°C] | SMILES | dosing levels showing maximal tumor growth inhibition [4] [mg/kg] | tumor growth inhibition compared to vehicle treated group ([4]; 1, 3, 10, 30 and 100 mg/kg, all tested dosing levels, p-value <0.001)
13 | < 5.00 |  |  | 181 to 185 | Cn1cc2c3cc(C(=O)NCc4ccncc4)ccc3n(-c3ccc(C(F)(F)F)cc3)c2n1 [Example 28, 2-methyl-N—[(pyridin-4-yl)methyl]-8-[4-(trifluoromethyl)phenyl]-2H, 8H-pyrazolo[3,4-b]indole-5-carboxamide] |  | 
14 | 5.00 to 7.00 | 5.00 to 6.00 | < 4.52 | 110 to 111 | Cn1cc2c3cc(C(=O)O[C@@H]4O[C@H](C(=O)O)[C@@H](O)[C@H](O)[C@H]4O)ccc3n(-c3ccc(C(F)(F)F)cc3)c2n1 [Example 30, (2S,3S,4S,5R,6S)-3,4,5-trihydroxy-6-{2-methyl-8-[4-(trifluoromethyl)phenyl]-2H,8H-pyrazolo[3,4-b]indole-5-carbonyloxy}oxane-2-carboxylic acid] |  | 
15 | 7.00 to 8.00 | 7.00 to 9.00 | < 4.52 |  | CCn1cc(C(O)CNC(=O)c2ccc3c(c2)c2cn(C)nc2n3-c2ccc(C(F)(F)F)cc2)cn1 (stereo not drawn) [Example B36, N-[2-(1-ethyl-1H-pyrazol-4-yl)-2-hydroxyethyl]-2-methyl-8-[4-(trifluoromethyl)phenyl]-2H,8H-pyrazolo[3,4-b]indole-5-carboxamide] |  | 
16 | 7.00 to 8.00 | 6.00 to 7.00 | 5.00 to 6.00 | 169 to 171 | Cc1nc2c(s1)c1cc(C(=O)O)ccc1n2-c1ccc(C(F)(F)F)cc1 [Example 25, 2-methyl-4-[4-(trifluoromethyl)phenyl]-[1,3]thiazolo[4,5-b]indole-7-carboxylic acid] |  | 
17 | 8.00 to 9.00 | 7.00 to 9.00 | < 4.52 | 300 | Cn1cc2c3cc(C(=O)NC4CC4)ccc3n(-c3ccc(C(F)(F)F)nc3)c2n1 [Example 27, N-cyclopropyl-2-methyl-8-[6-(trifluoromethyl)pyridin-3-yl]-2H,8H-pyrazolo[3,4-b]indole-5-carboxamide] |  | 
18 | 7.00 to 8.00 | 7.00 to 9.00 | < 4.52 |  | Cn1cc2c3cc(C(=O)NCc4n[nH]cc4C4CC4)ccc3n(-c3ccc(C(F)(F)F)cc3)c2n1 [Example B22, N-[(4-cyclopropyl-1H-pyrazol-3-yl)methyl]-2-methyl-8-[4-(trifluoromethyl)phenyl]-2H,8H-pyrazolo[3,4-b]indole-5-carboxamide] |  | 
19 | 8.00 to 9.00 | 7.00 to 9.00 | < 4.52 |  | CN(C)S(=N)(=O)c1ccc2c(c1)c1nn(C)cc1n2-c1ccc(C(F)(F)F)cc1 (stereo not drawn) [Example 36, N,N,2-Trimethyl-4-[4-(trifluoromethyl)phenyl]-2H,4H-pyrazolo[4,3-b]indole-7-sulfonoimidamide] |  | 
